In patent US8476298B2 (Exelixis, Inc., priority 2003, dated 2013):
Where two headings read alike, the source gives them in different places.

Columns and labels:
[1] = molecular target: T1, c-Met (baculovirus expressed human c-Met kinase domain P948-S1343) (Homo sapiens, UniProt P08581); assay: c-Met Luciferase-Coupled Chemiluminescent Kinase assay (LCCA); assay type: biochemical;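 also: kinase activity read as percent ATP left after reaction, by luciferase-luciferin chemiluminescence, with 1 µM ATP and 1 µM poly-EY substrate, 2 h at ambient temperature, 10-point dose-response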
T1 construct: human c-Met kinase domain P948-S1343; host or cells: baculovirus expression
Experimental: (§1) Kinase activity and compound inhibition are investigated using one or more of the three assay formats described below. The ATP concentrations for each assay are selected to be close to the Michaelis-Menten constant (KM) for each individual kinase. Dose-response experiments are performed at 10 different inhibitor concentrations in a 384-well plate format. […] Typically H is close to unity. c-Met Assay
c-Met biochemical activity was assessed using a Luciferase-Coupled Chemiluminescent Kinase assay (LCCA) format as described above. Again, kinase activity was measured as the percent ATP remaining following the kinase reaction. Remaining ATP was detected by luciferase-luciferin-coupled chemiluminescence. Specifically, the reaction was initiated by mixing test compounds, 1 μM ATP, 1 μM poly-EY and 10 nM c-Met (baculovirus expressed human c-Met kinase domain P948-S1343) in a 20 uL assay buffer (20 mM Tris-HCL pH7.5, 10 mM MgCl2, 0.02% Triton X-100, 100 mM DTT, 2 mM MnCu2). The mixture is incubated at ambient temperature for 2 hours after which 20 uL luciferase-luciferin mix is added and the chemiluminescent signal read using a Wallac Victor^2 reader.

[2] = molecular target: T2, KDR (baculovirus expressed human KDR kinase domain D807-V1356) (Homo sapiens, UniProt P35968); assay: biochemical;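 also: Luciferase-coupled chemiluminescent kinase assay, activity read as percent ATP left after 4 h reaction at ambient temperature, ATP near KM, 10-point dose-response in 384-well plates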
T2 construct: human KDR kinase domain D807-V1356; host or cells: baculovirus expression

[3] = molecular target: T3, Flt-4 (baculovirus expressed human Flt-4 kinase domain D725-R1298) (Homo sapiens, UniProt P35916); assay: flt-4 Alphascreen Tyrosine Kinase assay; assay type: biochemical; conditions: read-out: flt4 IC50;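 also: AlphaScreen chemiluminescence read-out of biotinylated poly(Glu,Tyr) 4:1 phosphorylation via streptavidin donor and PY100 anti-phosphotyrosine acceptor beads, ATP near KM, 1 hr kinase reaction, 10-point dose-response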
T3 construct: human Flt-4 kinase domain D725-R1298; host or cells: baculovirus expression
Experimental: as §1
Biochemical activity for flt-4 was assessed using an Alphascreen Tyrosine Kinase protocol. AlphaScreen™ (Perkin Elmer) technology is a proximity assay employing microparticles. Singlet oxygen derived from a donor bead following laser excitation results in chemiluminescence when in proximity (100 Å) to an acceptor bead due to biomolecular interactions. For the Flt-4 assay, donor beads coated with streptavidin and acceptor beads coated with PY100 anti-phosphotyrosine antibody were used (Perkin Elmer). Biotinylated poly(Glu,Tyr) 4:1 (Perkin Elmer) was used as the substrate. Substrate phosphorylation was measured by addition of donor/acceptor beads by chemiluminescence following donor-acceptor bead complex formation. […] Reaction mixtures were incubated for 1 hr at ambient temperature. […] After 2-16 hr incubation at ambient temperature plates were read using an AlphaQuest reader (Perkin Elmer).

[4] = molecular target: T4, Flt-3 (baculovirus expressed human Flt-3 kinase domain R571-S993) (Homo sapiens, UniProt P36888); assay: biochemical; conditions: read-out: flt3 IC50;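 also: Luciferase-coupled chemiluminescent kinase assay, activity read as percent ATP left after a 3 h reaction at room temperature, ATP near KM, 10-point dose-response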
T4 construct: human Flt-3 kinase domain R571-S993; host or cells: baculovirus expression
T4 sequence (P36888 571-993): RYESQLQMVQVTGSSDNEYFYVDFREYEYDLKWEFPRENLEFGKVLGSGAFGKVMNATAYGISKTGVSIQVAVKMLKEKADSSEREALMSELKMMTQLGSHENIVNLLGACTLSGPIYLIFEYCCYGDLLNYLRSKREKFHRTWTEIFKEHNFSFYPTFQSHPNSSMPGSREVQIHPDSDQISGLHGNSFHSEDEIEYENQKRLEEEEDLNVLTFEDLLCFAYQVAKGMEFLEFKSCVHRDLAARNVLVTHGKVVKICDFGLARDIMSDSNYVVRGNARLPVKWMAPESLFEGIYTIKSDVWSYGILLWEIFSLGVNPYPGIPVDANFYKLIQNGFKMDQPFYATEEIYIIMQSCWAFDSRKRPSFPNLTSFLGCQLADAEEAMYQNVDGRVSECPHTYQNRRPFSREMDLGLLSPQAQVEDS

[5] = molecular target: c-Kit kinase (Homo sapiens, UniProt P10721); assay: c-Kit AlphaScreen kinase assay; assay type: biochemical;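 also: c-Kit kinase phosphorylating biotinylated poly(Glu,Tyr), ATP near its KM, 1 h reaction at ambient temperature, AlphaScreen chemiluminescence with streptavidin donor and anti-phosphotyrosine acceptor beads, 10-point inhibitor titration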
Experimental: Kinase activity and compound inhibition are investigated using one or more of the three assay formats described below. The ATP concentrations for each assay are selected to be close to the Michaelis-Menten constant (KM) for each individual kinase. Dose-response experiments are performed at 10 different inhibitor concentrations in a 384-well plate format.
AlphaScreen™ (Perkin Elmer) technology is a proximity assay employing microparticles. Singlet oxygen derived from a donor bead following laser excitation results in chemiluminescence when in proximity (100 Å) to an acceptor bead due to biomolecular interactions.
c-Kit biochemical activity was assessed using AlphaScreen™ (Perkin Elmer) technology, described above. Test compounds, ATP, biotinylated poly(Glu, Tyr) and c-Kit kinase were combined in a volume of 20 μL in a 384-well white, medium binding microtiter plate (Greiner). Reaction mixtures were incubated for 1 hr at ambient temperature. […] After 16 hr incubation at ambient temperature plates were read using an AlphaQuest reader (Perkin Elmer).

[6] = Table 4, inhibition as IC50 class

T3 sequence (P35916 725-1298 isoform P35916-1): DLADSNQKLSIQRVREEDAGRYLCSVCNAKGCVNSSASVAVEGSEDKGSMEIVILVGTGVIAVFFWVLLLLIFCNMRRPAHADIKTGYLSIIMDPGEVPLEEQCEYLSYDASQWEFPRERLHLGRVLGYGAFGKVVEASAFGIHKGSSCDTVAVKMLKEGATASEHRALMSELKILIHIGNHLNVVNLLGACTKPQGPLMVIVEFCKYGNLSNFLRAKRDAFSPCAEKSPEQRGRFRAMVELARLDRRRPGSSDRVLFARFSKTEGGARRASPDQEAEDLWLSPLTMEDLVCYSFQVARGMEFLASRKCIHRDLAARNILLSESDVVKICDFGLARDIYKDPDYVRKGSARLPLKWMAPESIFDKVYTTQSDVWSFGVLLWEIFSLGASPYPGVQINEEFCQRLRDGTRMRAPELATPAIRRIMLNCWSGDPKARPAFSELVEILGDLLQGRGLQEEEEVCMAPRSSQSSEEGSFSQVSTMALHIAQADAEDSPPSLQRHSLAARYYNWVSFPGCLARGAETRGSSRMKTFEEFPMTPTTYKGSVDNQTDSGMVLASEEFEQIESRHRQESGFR
T2 sequence (P35968 807-1356): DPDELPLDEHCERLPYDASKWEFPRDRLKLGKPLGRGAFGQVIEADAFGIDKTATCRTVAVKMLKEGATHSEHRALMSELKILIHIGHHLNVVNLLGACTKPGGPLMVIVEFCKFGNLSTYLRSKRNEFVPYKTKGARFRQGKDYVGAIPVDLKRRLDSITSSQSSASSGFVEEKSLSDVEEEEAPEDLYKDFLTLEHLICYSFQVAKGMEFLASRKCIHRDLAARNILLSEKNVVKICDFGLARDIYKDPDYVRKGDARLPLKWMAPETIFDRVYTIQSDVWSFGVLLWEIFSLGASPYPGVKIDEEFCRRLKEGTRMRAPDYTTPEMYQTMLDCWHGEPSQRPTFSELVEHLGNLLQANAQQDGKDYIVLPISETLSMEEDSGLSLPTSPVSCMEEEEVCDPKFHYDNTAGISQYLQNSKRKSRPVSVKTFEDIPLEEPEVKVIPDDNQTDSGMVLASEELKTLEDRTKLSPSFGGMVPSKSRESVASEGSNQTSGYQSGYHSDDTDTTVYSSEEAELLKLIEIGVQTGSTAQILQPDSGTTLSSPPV
T1 sequence (P08581 1011-1343 limits assumed): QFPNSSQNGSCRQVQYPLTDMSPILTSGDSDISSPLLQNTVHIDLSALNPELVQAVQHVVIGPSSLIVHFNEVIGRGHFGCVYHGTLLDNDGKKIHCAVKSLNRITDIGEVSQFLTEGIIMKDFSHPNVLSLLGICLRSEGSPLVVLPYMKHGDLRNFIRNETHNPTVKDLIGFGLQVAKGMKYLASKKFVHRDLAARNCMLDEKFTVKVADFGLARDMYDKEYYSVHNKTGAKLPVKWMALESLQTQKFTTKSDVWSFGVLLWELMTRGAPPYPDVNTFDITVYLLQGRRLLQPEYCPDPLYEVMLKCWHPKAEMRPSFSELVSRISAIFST
Chain of c-Kit kinase (P10721 26-976): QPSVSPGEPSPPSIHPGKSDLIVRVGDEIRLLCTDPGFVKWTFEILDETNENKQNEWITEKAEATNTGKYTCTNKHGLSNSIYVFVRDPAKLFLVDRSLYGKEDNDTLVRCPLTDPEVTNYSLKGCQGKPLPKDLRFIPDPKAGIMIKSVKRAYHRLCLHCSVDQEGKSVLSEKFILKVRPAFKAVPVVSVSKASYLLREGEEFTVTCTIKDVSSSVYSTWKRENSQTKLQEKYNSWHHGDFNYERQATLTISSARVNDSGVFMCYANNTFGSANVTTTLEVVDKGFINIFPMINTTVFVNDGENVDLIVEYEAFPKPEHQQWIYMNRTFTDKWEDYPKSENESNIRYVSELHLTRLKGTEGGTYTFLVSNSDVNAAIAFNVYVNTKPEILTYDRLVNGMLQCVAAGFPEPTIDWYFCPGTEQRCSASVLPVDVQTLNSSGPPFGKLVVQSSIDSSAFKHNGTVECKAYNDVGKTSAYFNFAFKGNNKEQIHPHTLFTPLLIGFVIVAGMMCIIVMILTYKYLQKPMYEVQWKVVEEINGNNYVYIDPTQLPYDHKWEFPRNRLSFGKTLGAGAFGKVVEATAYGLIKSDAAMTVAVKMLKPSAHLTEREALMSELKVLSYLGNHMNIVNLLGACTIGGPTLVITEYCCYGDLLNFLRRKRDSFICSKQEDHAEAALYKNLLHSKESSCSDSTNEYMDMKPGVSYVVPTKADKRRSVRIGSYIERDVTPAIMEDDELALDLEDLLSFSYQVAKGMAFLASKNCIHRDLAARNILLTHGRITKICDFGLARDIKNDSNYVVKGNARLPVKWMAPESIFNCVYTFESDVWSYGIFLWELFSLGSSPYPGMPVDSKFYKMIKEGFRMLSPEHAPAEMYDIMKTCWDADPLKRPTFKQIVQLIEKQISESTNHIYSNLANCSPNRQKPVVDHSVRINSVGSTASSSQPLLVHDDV

Row | Compound | IC50 [1, 6] [nM] | IC50 [2, 6] [nM] | IC50 [3, 6] [nM] | IC50 [4, 6] [nM] | IC50 [5, 6] [nM] | IC50 [1] [nM] | IC50 [2] [nM] | IC50 [3] [nM] | IC50 [4] [nM] | IC50 [5] [nM]
1 | COc1cc2c(Oc3ccc(NC(=O)C(=O)NCCC(C)(C)C)cc3F)ccnc2cc1OCC1CCNCC1 [Example 264, N-(3,3-dimethylbutyl)-N′-[3-fluoro-4-({6-(methyloxy)-7-[(piperidin-4-ylmethyl)oxy]quinolin-4-yl}oxy)phenyl]ethanediamide] | < 50 | < 50 | 50 to 500 | < 50 | < 50 |  |  |  |  | 
2 | COc1cc2c(Oc3ncc(NC(=O)CC(=O)Nc4ccc(F)cc4)cc3Cl)ccnc2cc1OCCCN1CCCCC1 [Example 265, N-[5-chloro-6-({6-(methyloxy)-7-[(3-piperidin-1-ylpropyl)oxy]quinolin-4-yl}oxy)pyridin-3-yl]-N′-(4-fluorophenyl)propanediamide] | < 50 | 50 to 500 | 50 to 500 | < 50 | 50 to 500 |  |  |  |  | 
3 | COc1cc2c(Oc3ncc(NC(=O)CC(=O)Nc4ccc(F)cc4)cc3Cl)ccnc2cc1OCCCN1CCOCC1 [Example 266, N-[5-chloro-6-({6-(methyloxy)-7-[(3-morpholin-4-ylpropyl)oxy]quinolin-4-yl}oxy)pyridin-3-yl]-N′-(4-fluorophenyl)propanediamide] | < 50 | 50 to 500 | 50 to 500 | < 50 | 50 to 500 |  |  |  |  | 
4 | CCN(CC)CCCOc1cc2nccc(Oc3ncc(NC(=O)CC(=O)Nc4ccc(F)cc4)cc3Cl)c2cc1OC [Example 267, N-(5-chloro-6-{[7-{[3-(diethylamino)propyl]oxy}-6-(methyloxy)quinolin-4-yl]oxy}pyridin-3-yl)-N′-(4-fluorophenyl)propanediamide] | < 50 | 50 to 500 | 50 to 500 | < 50 | 50 to 500 |  |  |  |  | 
5 | CCCCc1ccc(CNC(=O)C(=O)Nc2ccc(Oc3ccnc4cc(OCC5CCNCC5)c(OC)cc34)c(F)c2)cc1 [Example 270, N-[(4-butylphenyl)methyl]-N′-[3-fluoro-4-({6-(methyloxy)-7-[(piperidin-4-ylmethyl)oxy]quinolin-4-yl}oxy)phenyl]ethanediamide] | < 50 | 50 to 500 | 50 to 500 | 50 to 500 | 50 to 500 |  |  |  |  | 
6 | COc1cc2c(Oc3ccc(NC(=O)C(=O)NCCc4ccc(C)cc4)cc3F)ccnc2cc1OCC1CCNCC1 [Example 271, N-[3-fluoro-4-({6-(methyloxy)-7-[(piperidin-4-ylmethyl)oxy]quinolin-4-yl}oxy)phenyl]-N′-[2-(4-methylphenyl)ethyl]ethanediamide] | < 50 | 50 to 500 | 50 to 500 | < 50 | 50 to 500 |  |  |  |  | 
7 | COc1cc2c(Oc3ccc(NC(=O)C(=O)NCc4ccccn4)cc3F)ccnc2cc1OCC1CCNCC1 [Example 274, N-[3-fluoro-4-({6-(methyloxy)-7-[(piperidin-4-ylmethyl)oxy]quinolin-4-yl}oxy)phenyl]-N′-(pyridin-2-ylmethyl)ethanediamide] | < 50 | 50 to 500 | 50 to 500 | 50 to 500 | 50 to 500 |  |  |  |  | 
8 | COc1cc2c(Oc3ccc(NC(=O)C(=O)NCCc4ccccc4)cc3F)ncnc2cc1OCC1CCNCC1 [Example 275, N-[3-fluoro-4-({6-(methyloxy)-7-[(piperidin-4-ylmethyl)oxy]quinazolin-4-yl}oxy)phenyl]-N′-(2-phenylethyl)ethanediamide] | < 50 | < 50 | < 50 | < 50 | < 50 |  |  |  |  | 
9 | COc1cc2c(Oc3ccc(NC(=O)C(=O)NCCc4ccccc4)cc3F)ncnc2cc1OCC1CCN(C)CC1 [Example 276, N-{3-fluoro-4-[(6-(methyloxy)-7-{[(1-methylpiperidin-4-yl)methyl]oxy}quinazolin-4-yl)oxy]phenyl}-N′-(2-phenylethyl)ethanediamide] | < 50 | < 50 | < 50 | < 50 | < 50 |  |  |  |  | 
10 | COc1cc2c(Oc3ccc(NC(=O)C(=O)NCc4cccc(C(F)(F)F)c4F)cc3F)ccnc2cc1OCC1CCNCC1 [Example 277, N-[3-fluoro-4-({6-(methyloxy)-7-[(piperidin-4-ylmethyl)oxy]quinolin-4-yl}oxy)phenyl]-N′-{[2-fluoro-3-(trifluoromethyl)phenyl]methyl}ethanediamide] | < 50 | < 50 | < 50 | < 50 | < 50 |  |  |  |  | 
11 | COc1ccc(CCN(C)C(=O)C(=O)Nc2ccc(Oc3ccnc4cc(OCC5CCNCC5)c(OC)cc34)c(F)c2)cc1OC [Example 279, N-{2-[3,4-bis(methyloxy)phenyl]ethyl}-N′-[3-fluoro-4-({6-(methyloxy)-7-[(piperidin-4-ylmethyl)oxy]quinolin-4-yl}oxy)phenyl]-N-methylethanediamide] | 50 to 500 | 50 to 500 | 50 to 500 | < 50 | 50 to 500 |  |  |  |  | 
12 | COc1ccc(Br)cc1CCNC(=O)C(=O)Nc1ccc(Oc2ccnc3cc(OCC4CCNCC4)c(OC)cc23)c(F)c1 [Example 280, N-{2-[5-bromo-2-(methyloxy)phenyl]ethyl}-N′-[3-fluoro-4-({6-(methyloxy)-7-[(piperidin-4-ylmethyl)oxy]quinolin-4-yl}oxy)phenyl]ethanediamide] | < 50 | < 50 | < 50 | < 50 | < 50 |  |  |  |  | 
13 | COc1cc2c(Oc3ccc(NC(=O)C(=O)NCc4cc(C(F)(F)F)ccc4F)cc3F)ccnc2cc1OCC1CCNCC1 [Example 281, N-[3-fluoro-4-({6-(methyloxy)-7-[(piperidin-4-ylmethyl)oxy]quinolin-4-yl}oxy)phenyl]-N′-{[2-fluoro-5-(trifluoromethyl)phenyl]methyl}ethanediamide] | < 50 | < 50 | 50 to 500 | < 50 | 50 to 500 |  |  |  |  | 
14 | COc1cc2c(Oc3ncc(NC(=O)C4(C(=O)Nc5ccc(F)cc5)CC4)cc3Cl)ccnc2cc1OCC1CCNCC1 [Example 282, N-[5-chloro-6-({6-(methyloxy)-7-[(piperidin-4-ylmethyl)oxy]quinolin-4-yl}oxy)pyridin-3-yl]-N′-(4-fluorophenyl)cyclopropane-1,1-dicarboxamide] |  |  |  |  |  | < 50 | < 50 | < 50 | < 50 | < 50
15 | COc1cc2c(Oc3ccc(NC(=O)C(=O)NC(C)c4ccc(F)cc4)cc3F)ccnc2cc1OCC1CCNCC1 (centres unmarked) [Example 283, N-[3-fluoro-4-({6-(methyloxy)-7-[(piperidin-4-ylmethyl)oxy]quinolin-4-yl}oxy)phenyl]-N′-[1-(4-fluorophenyl)ethyl]ethanediamide] |  |  |  |  |  | < 50 | < 50 | 50 to 500 | < 50 | 50 to 500
16 | COc1cc2c(Oc3ccc(NC(=O)C(=O)N[C@@H](Cc4ccccc4)C(=O)N4CCCC4)cc3F)ccnc2cc1OCC1CCNCC1 [Example 284, N-[3-fluoro-4-({6-(methyloxy)-7-[(piperidin-4-ylmethyl)oxy]quinolin-4-yl}oxy)phenyl]-N′-[(1S)-2-oxo-1-(phenylmethyl)-2-pyrrolidin-1-ylethyl]ethanediamide] |  |  |  |  |  | < 50 | 500 to 5000 | 500 to 5000 | 50 to 500 | 50 to 500
17 | COc1cc2c(Oc3ccc(NC(=O)C(=O)NCCc4ccccc4)cc3F)ncnc2cc1OCC1C[C@H]2CNC[C@H]2C1 (stereo partly drawn) [Example 285, N-{3-fluoro-4-[(6-(methyloxy)-7-{[(3aR,6aS)-octahydrocyclopenta[c]pyrrol-5-ylmethyl]oxy}quinazolin-4-yl)oxy]phenyl}-N′-(2-phenylethyl)ethanediamide] |  |  |  |  |  | < 50 | < 50 | < 50 | < 50 | < 50
18 | COc1cc2c(Oc3ccc(NC(=O)C(=O)NCCc4ccc(N)cc4)cc3F)ccnc2cc1OCC1CCNCC1 [Example 286, N-[2-(4-aminophenyl)ethyl]-N′-[3-fluoro-4-({6-(methyloxy)-7-[(piperidin-4-ylmethyl)oxy]quinolin-4-yl}oxy)phenyl]ethanediamide] |  |  |  |  |  | < 50 | 50 to 500 | 50 to 500 | 50 to 500 | 50 to 500
19 | COc1cc2c(Oc3ccc(NC(=O)C(=O)N4CCC(Cc5ccccc5)CC4)cc3F)ccnc2cc1OCC1CCNCC1 [Example 287, N-[3-fluoro-4-({6-(methyloxy)-7-[(piperidin-4-ylmethyl)oxy]quinolin-4-yl}oxy)phenyl]-2-oxo-2-[4-(phenylmethyl)piperidin-1-yl]acetamide] |  |  |  |  |  | < 50 | < 50 | 50 to 500 | < 50 | 50 to 500
